Data: patent US10793526B2, “Hydantoin derivative compounds, methods of use and methods of treatment” (University of South Florida, priority 2016, dated 2020)
Values after ≈ are worked out from the molar mass of the structure shown.

Tests used:
[1] = tested on: methicillin-resistant S. aureus (MRSA, ATCC 33591); assay: Minimum inhibitory concentration (MIC) assay, MRSA; format: cell-based, Staphylococcus aureus
[2] = tested on: vancomycin-resistant Enterococcus faecalis (VREF, ATCC 700802); assay: Minimum inhibitory concentration (MIC) assay, VREF; format: cell-based; conditions: Enterococcus faecalis, ATCC700802, Gram positive, 16 h incubation, read-out: MIC (μg/mL) VREF
E. coli (ATCC 25922) = assay: Minimum inhibitory concentration (MIC) assay, E. coli; format: cell-based, Escherichia coli; conditions: Escherichia coli, ATCC25922, Gram negative, 16 h incubation, read-out: MIC (μg/mL) E. coli
[3] = tested on: colon cancer cells (HCT116); assay: Selectivity for mammalian cells, HCT116; format: cell-based; conditions: Homo sapiens, HCT-116; read-out: IC50 toward colon cancer cells (HCT116)
MRSA = assay: Rat model of MRSA-induced pneumonia, bacterial count in lungs; format: in vivo; conditions: 10 mg/kg i.v.
Procedure: The rat model of MRSA-induced pneumonia.^4, 5
The protocol of animal studies was approved by the institutional committee for animal care of Nanjing University, and the experiments were conducted following the regulation of the National Ministry of Health of China. In Brief, male Wistar rats (6-8 weeks, ˜200 g in average weight) were subjected to fast for 12 h. Next, rats were anesthetized by intraperitoneal administration of 0.35 g/kg of chloral hydrate. To induce MRSA pneumonia, the trachea of rats were exposed, to which 100 μL PBS containing 2×10^6 CFU/mL MRSA in PBS was slowly injected. The rats were retained upright for 1 min, and the cut was sealed. The MRSA infection was allowed to develop for 24 h.
Bronchoalveolar lavage (BAL) assay.
The assay was carried out to quantify the bacteria in the lungs of rats. The thorax of rats was opened, and the lungs were collected in each group at different time points. Then the lungs were malleated and homogenized by a glass homogenizer, and diluted with PBS to the determined volume. After that, 10 μL solution was picked up, diluted with PBS by 100-fold, and daubed on the isolation medium. Bacteria were counted in each sample after incubation for 24 h at 37° C., from which the number of bacteria (colonies/g tissue) was calculated.

[4] = tested on: panel of Gram-positive and Gram-negative bacteria; assay: Antimicrobial activity against the whole panel of bacteria; format: cell-based; conditions: all tested strains; read-out: MICs against all tested Gram-positive and Gram-negative strains
Procedure: Minimum inhibitory concentrations (MICs) assay.^2
All compounds were tested against six different bacteria strains: methicillin-resistant S. aureus (MRSA, ATCC 33591), E. coli (ATCC 25922), methicillin-resistant S. epidermidis (MRSE, RP62A), K. pneumoniae (ATCC 13383), vancomycin-resistant Enterococcus faecalis (VREF, ATCC 700802), P. aeruginosa (ATCC 27853). One colony of each bacteria was inoculated in 4 mL TSB buffer at 37° C. overnight, which was then diluted 100 times, and the bacteria were allowed to grow to the mid-logarithmic phase. 50 μL hydantoin compounds in 2-fold serial dilution of TSB were added in the 96-well plate, then 50 μL diluted bacterial in TSB medium (1×10^6 CFU/mL) was added to each well. After 16 h of incubation at 37° C., the absorption at 600 nm wavelength on a Biotek Synergy HT microtiter plate reader was recorded. Minimum inhibitory concentrations were determined as the lowest concentrations that inhibited bacteria growth completely.

CCCCCCCCCCCC(=O)N[C@@H](CCCCN)CN1CC(=O)N(c2cccc(Cl)c2)C1=O [Compound 22, (S)—N-(6-amino-1-(3-(3-chlorophenyl)-2,4-dioxoimidazolidin-1-yl)hexan-2-yl)dodecanamide]
MIC ([1]; Staphylococcus aureus, Gram positive, ATCC 33591, 16 h incubation, read-out: MIC (μg/mL) MRSA): 0.5 µg/mL | effectiveness toward MRSA compared with nitrofurantoin ([1]; ratio of MICs): 25 fold | MIC [2]: 0.5 µg/mL | MIC (E. coli (ATCC 25922)): 1 µg/mL | IC50 [3]: 100 µg/mL (≈ 197 µM) | reduction of bacteria compared with the control, day 5 (MRSA): 96% | MIC [4]: < 1 µg/mL
